Consider one molecule from patent US12384771B2, “Pleuromutilin derivative containing thiazole-pyridine benzyl quaternary ammonium salt side chain and preparation method and use thereof” (SHAANXI UNIVERSITY OF SCIENCE AND TECHNOLOGY, priority 2022, dated 2025).

Where a name gives a salt, the structure may show the parent alone.

What all share (format): cell-based
Experiment [1] has as its system Mycoplasma hyopneumoniae clinical isolate LH strain (Mhp-LH). Nature of the experiment: Anti-mycoplasma activity assay, MIC. The settings on record: Mesomycoplasma hyopneumoniae. The procedure:
The minimum inhibitory concentration of the pleuromutilin derivative containing thiazole-pyridine benzyl quaternary ammonium salt side chain against different mycoplasmas was tested with tiamulin as (purchased from Shanghai Yuanye Bio-Technology Co., Ltd) a positive control using a microbroth dilution method, and the antibacterial effect of the compound against different mycoplasmas was evaluated.
Experimental strains include Mycoplasma hyopneumoniae standard strain J strain (Mhp-J; NCTC 10110), Mycoplasma hyopneumoniae clinical isolate LH strain (Mhp-LH), Mycoplasma hyorhini standard strain BTS-7 strain (Mhr-BTS-7; NCTC 10130), Mycoplasma gallisepticum R strain (MG-R) and Mycoplasma synoviae WVU1853 strain (MS-WVU1853; NCTC 10124) (purchased from National Collection of Type Cultures, United Kingdom).
The specific operation steps are as follows: • (1) preparation of KM2 medium: 38.9 g of KM2 medium (purchased from Guangdong Huankai Microbial Sci. & Tech. Co., Ltd.) was weighed, added to 800 mL of distilled water, boiled and dissolved, and autoclaved at 115° C. for 20 min for later use. • (2) preparation of bacterial liquid stock: 0.5 mL of each of Mycoplasma hyopneumoniae (Mhp), Mycoplasma hyorhina (Mhr), Mycoplasma gallisepticum (MG) and Mycoplasma synoviae (MS) was taken and transferred to 4.5 mL of KM2 liquid medium, and when the colour of the medium turned yellow, each of the bacteria was sub-packaged at 0.5 mL per tube, and stored as the bacterial liquid at −70° C. • (3) determination of bacterial liquid titre (colour change unit, CCU): 96-well plate method was used to measure the bacterial liquid titre. The preserved bacterial liquid stock was taken from −70° C., melt and equilibrated to room temperature. 0.18 mL of KM2 medium was added to each well of the middle 4 rows of the 96-well plate (that is, 4 parallels), 0.02 mL of the bacterial liquid stock was taken and added to the wells of the first column, respectively, and subjected to 10-fold dilution until 10^−11. A negative control containing only KM2 medium was set (column 12). The plate was sealed and put into an incubator at 37° C., and the results were observed day by day. The highest dilution at which the colour of the medium can change was the CCU/mL of the strain. • (4) determination of MIC: the minimum inhibitory concentration of the compound against mycoplasmas was determined by a microbroth dilution method. Each drug to be tested was prepared as a stock solution with a concentration of 2560 μg/mL, and each drug stock solution was 2-fold diluted with KM2 liquid medium, and the test concentration range was 0.015-128 μg/mL (large concentration gradient) and 0.000004-0.06 μg/mL (small concentration gradient). An appropriate amount of seed bacterial liquid was taken and diluted to 10^4 CCU/mL serially according to its titre. Drugs of various dilutions were added sequentially to the 96-well plate, and then an equal amount of diluted bacterial liquid was added. 200 μL of diluted mycoplasma liquid was set as a positive control, 200 μL of KM2 liquid culture medium was set as a negative control, and a solvent control group (10 μL of drug solvent+190 μL of mycoplasma liquid) was also set. Three parallels were set for each experiment. After all the culture plates were sealed, they were allowed to culture at 37° C. and observed daily, and the final MIC values were recorded. (See FIG. 22 for the MIC determination results of the representative compound 7 against 5 mycoplasma strains)

Experiment [2] deals with multidrug-resistant Pseudomonas aeruginosa (MDR-PA) 18-993. Nature of the experiment: MIC, clinical drug-resistant bacteria. The settings on record: MDR-PA 18-993, read-out: Minimum inhibitory concentration against clinical drug-resistant bacteria. The procedure: (§1) The minimum inhibitory concentration (MIC) of the pleuromutilin derivative containing thiazole-pyridine benzyl quaternary ammonium salt side chain was tested with moxifloxacin as a positive control (purchased from Shanghai Macklin Biochemical Technology Co., Ltd.) using a microbroth dilution method. At the same time, the pleuromutilin derivative containing thiazole-pyridine benzyl quaternary ammonium salt side chain of the invention was compared with the marketed pleuromutilin antibiotics, such as retapamulin (purchased from Nanjing Chemlin Chemical Industry Co., Ltd.), tiamulin (purchased from Shanghai Yuanye Bio-Technology Co., Ltd) and valnemulin (purchased from Shanghai Acmec Biochemical Co., Ltd), in order to screen out pleuromutilin derivatives with better activity.
(§2) Clinical resistant bacteria include multidrug-resistant Pseudomonas aeruginosa (MDR-PA) 18-993, 18-756 and 18-126, multidrug-resistant Klebsiella pneumoniae (MDR-KP) 18-893, 18-754 and 18-1482, methicillin-resistant Staphylococcus aureus (MRSA) 18-171, 18-209 and 18-575, vancomycin-resistant Enterococcus faecalis (VRE) 18-94, 18-80 and 18-507, and carbapenem-resistant Acinetobacter baumannii (CR-AB) 18-184, 18-560 and 18-882, all the clinical drug-resistant strains were from Huashan Hospital, Fudan University.

For experiment [3], the system named is multidrug-resistant Pseudomonas aeruginosa (MDR-PA) 18-756. Nature of the experiment: MIC, clinical drug-resistant bacteria. The settings on record: MDR-PA 18-756, read-out: Minimum inhibitory concentration against clinical drug-resistant bacteria. The procedure: as §1, §2
In experiment [4] the test system is multidrug-resistant Klebsiella pneumoniae (MDR-KP) 18-754. Put plainly: MIC, clinical drug-resistant bacteria. The settings on record: MDR-KP 18-754, read-out: Minimum inhibitory concentration against clinical drug-resistant bacteria. The procedure: as §1, §2
In experiment [5] the test system is vancomycin-resistant Enterococcus faecalis (VRE) 18-94. Put plainly: MIC, clinical drug-resistant bacteria. The settings on record: VRE 18-94; read-out: Minimum inhibitory concentration against clinical drug-resistant bacteria. The procedure:
as §1, §2

The test system of experiment [6] is multidrug-resistant Klebsiella pneumoniae (MDR-KP) 18-1482. Put plainly: MIC, clinical drug-resistant bacteria. Conditions: MDR-KP 18-1482, read-out: Minimum inhibitory concentration against clinical drug-resistant bacteria. The procedure:
as §1, §2

The subject of experiment [7] is vancomycin-resistant Enterococcus faecalis (VRE) 18-80. Put plainly: MIC, clinical drug-resistant bacteria. The settings on record: VRE 18-80; read-out: Minimum inhibitory concentration against clinical drug-resistant bacteria. The procedure: as §1, §2
The test system of experiment [8] is multidrug-resistant Pseudomonas aeruginosa (MDR-PA) 18-126. Put plainly: MIC, clinical drug-resistant bacteria. The settings on record: MDR-PA 18-126, read-out: Minimum inhibitory concentration against clinical drug-resistant bacteria. How it is done:
as §1, §2

Experiment [9] concerns methicillin-resistant Staphylococcus aureus (MRSA) 18-575. Put plainly: MIC, clinical drug-resistant bacteria. Conditions: MRSA 18-575, read-out: Minimum inhibitory concentration against clinical drug-resistant bacteria. How it is done:
as §1, §2

For experiment [10], the system named is vancomycin-resistant Enterococcus faecalis (VRE) 18-507. Put plainly: MIC, clinical drug-resistant bacteria. The settings on record: VRE 18-507; read-out: Minimum inhibitory concentration against clinical drug-resistant bacteria. The procedure:
as §1, §2

The subject of experiment [11] is carbapenem-resistant Acinetobacter baumannii (CR-AB) 18-560. Put plainly: MIC, clinical drug-resistant bacteria. Conditions: CR-AB 18-560, read-out: Minimum inhibitory concentration against clinical drug-resistant bacteria. The procedure: as §1, §2
The subject of experiment [12] is multidrug-resistant Klebsiella pneumoniae (MDR-KP) 18-893. Put plainly: MIC, clinical drug-resistant bacteria. The settings on record: MDR-KP 18-893, read-out: Minimum inhibitory concentration against clinical drug-resistant bacteria. The procedure:
as §1, §2

As for `C=C[C@]1(C)C[C@@H](OC(=O)CSc2nc(-c3cc[n+](Cc4ccc([N+](=O)[O-])cc4)cc3)cs2)[C@]2(C)[C@H](C)CC[C@]3(CCC(=O)[C@H]32)[C@@H](C)[C@@H]1O` [Compound 7, 1-(4-(nitro)benzyl)-4-(2-(8-hydroxy-4,7,9,12-tetramethyl-3-oxo-7-vinyldecahydro-4,9a-propancyclopent[8]cyclen-5-yl)oxy)-2-oxoethyl)thiazol-4-yl)pyridyl bromide salt], the MIC in experiment [1] was 0.002 µg/mL; in experiment [2], 32 µg/mL; in experiment [3] it was 32 µg/mL; in experiment [4], 16 µg/mL; in experiment [5], 64 µg/mL; in experiment [6], 16 µg/mL. The MIC is 8 µg/mL in experiment [7]; 8 µg/mL in experiment [8]; 64 µg/mL in experiment [9]; 64 µg/mL in experiment [10]; 64 µg/mL in experiment [11]; 16 µg/mL in experiment [12].
